Consider 19 compounds from PubChem BioAssay (NCI).

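Cells were grown in 96-well plates and exposed to each compound for 48 hours at five concentrations; endpoints were interpolated linearly between bracketing concentrations, or set to the highest concentration if not reached. GI50 = concentration required for 50% inhibition of growth. TGI: total growth inhibition.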 Where only a bound is given, the exact number is not on record here.

Test in all cases: NCI anticancer screen, dose series, 48 h
Experiment [1] has as its system MDA-N.
For experiment [2], the system named is NCI-H23 lung.
Experiment [3] has as its system MOLT-4 leukemia.
Experiment [4] deals with RPMI-8226 leukemia.
For experiment [5], the system named is CCRF-CEM leukemia.
The test system of experiment [6] is HOP-92 NSCLC.
For experiment [7], the system named is BT-549 breast.
The test system of experiment [8] is SK-OV-3 ovarian.
Experiment [9] concerns SW-620 colon.
Experiment [10] deals with OVCAR-8 ovarian.

Take `COc1ccc(C(=O)NCCN(C)C)c2nc3ccccc3cc12`: the TGI is 4.38 µM in experiment [1]; 2.2 µM in experiment [2]; 22.6 µM in experiment [3]; 6.71 µM in [4]; 11.4 µM in [5]; 8.05 µM in [6]. In addition, the TGI is 14.4 µM in [7], 8.69 µM in experiment [8], 5.06 µM in experiment [9] and 4.67 µM in [10].
For `CCOC(=O)CC/C(=N/Nc1ccc(Cl)cc1[N+](=O)[O-])C(=O)OCC`, the TGI in [1], in experiment [2], in [3], in experiment [4], in [5] and in experiment [6] was greater than 100 µM throughout. Moreover, the TGI in experiment [7], in experiment [8], in experiment [9] and in experiment [10] was greater than 100 µM throughout.
As to `O=c1c2c(no[n+]2[O-])c2ccccc2n1-c1ccccc1`, the TGI came to 9.56 µM in experiment [1]; 5.53 µM in [2]; 26.6 µM in experiment [3]; 42.8 µM in experiment [4]; 7.21 µM in [5]; 17.6 µM in [6]. Moreover, the TGI in [7] turned out to be 8.56 µM; in experiment [8], 21.7 µM; in experiment [9] it was 7.54 µM; in experiment [10], 11.1 µM.
In the case of `O=C(O)c1cccc(S(=O)(=O)NN2C(=O)CSC2c2ccc(Cl)cc2Cl)c1` (stereo unspecified), the TGI in experiment [1], in experiment [2], in [3], in experiment [4], in experiment [5] and in experiment [6] was greater than 100 µM each time. Further, the TGI in experiment [7] was greater than 100 µM; in experiment [8] it was greater than 100 µM; in experiment [9] it was greater than 100 µM; in experiment [10], 30.2 µM.
As for `c1ccc(C2=NOC(c3ccccc3)N2C23CC4CC(CC(C4)C2)C3)cc1` (stereo unspecified), the TGI in experiment [1], in [2], in experiment [3], in experiment [4], in experiment [5] and in [6] was greater than 10 µM each time. Further, the TGI in experiment [7], in [8], in experiment [9] and in experiment [10] was greater than 10 µM each time.
With `CCN(C(=O)N[C@@H](C)C(=O)N[C@@H](Cc1ccccc1)C(=O)OC)c1ccccc1`, the TGI in experiment [1] is greater than 100 µM; in experiment [2] it was greater than 100 µM; in [3] it was greater than 100 µM; in experiment [4], greater than 100 µM; in experiment [5], greater than 100 µM; in [6], 68 µM. The TGI in [7], in experiment [8], in experiment [9] and in experiment [10] was greater than 100 µM in each case.
Take `CC(C)Oc1cccc(N2C(=NCc3c[nH]c4ccccc34)Nc3ccncc3S2(=O)=O)c1`: the TGI in experiment [1] is greater than 100 µM; in experiment [2], greater than 100 µM; in experiment [3], 96.7 µM; in [4], 30 µM; in experiment [5], greater than 100 µM; in [6], 56.6 µM. The TGI in [7], in experiment [8], in experiment [9] and in [10] was greater than 100 µM in each case.
Regarding `C=C(C)[C@H]1C2=CC(C(=O)OC)=C(C[C@H](C(=C)C)[C@@H](O)[C@@H](O)C3=C[C@H]1OC3=O)O2`, the TGI in experiment [1], in [2], in [3], in [4], in [5] and in experiment [6] was greater than 100 µM in each case. Moreover, the TGI in [7], in experiment [8], in [9] and in [10] was greater than 100 µM each time.
As for `OCCCc1ccc2c(c1)[C@H](CO)[C@@H](c1ccc(O)cc1)O2`, the TGI in experiment [1], in [2], in [3], in [4], in experiment [5] and in experiment [6] was greater than 100 µM each time. Also, the TGI was 47.8 µM in [7], greater than 100 µM in [8], greater than 100 µM in [9] and greater than 100 µM in experiment [10].
Regarding `O=C(O)C(O)C(O)C(O)C(O)CO` (stereo unspecified), the TGI in experiment [1], in experiment [2], in [3], in experiment [4], in experiment [5] and in [6] was greater than 100 µM in each case. Further, the TGI in experiment [7], in [8], in experiment [9] and in experiment [10] was greater than 100 µM throughout.
With `Cc1ccc(/C=C2/N=C(N/N=C\C(O)C(O)C(O)C(O)CO)NC2=O)cc1` (stereo unspecified), the TGI in experiment [1], in experiment [2], in experiment [3], in experiment [4], in experiment [5] and in experiment [6] was greater than 100 µM each time. The TGI in experiment [7], in experiment [8], in experiment [9] and in [10] was greater than 100 µM each time. Moreover, the GI50 in experiment [3] was 70.1 µM.
As to `CC1(C)C=CC(=O)C(O)C(C)(C)C1=O` (stereo unspecified), the TGI in experiment [1] was greater than 100 µM; in experiment [2], greater than 100 µM; in experiment [3], 69.7 µM; in experiment [4], greater than 100 µM; in experiment [5], 3.63 µM; in experiment [6], greater than 100 µM. Besides, the TGI in experiment [7], in [8], in experiment [9] and in experiment [10] was greater than 100 µM in each case.
In the case of `O=C1N(Cc2ccccc2)C2CSCC2N1Cc1ccccc1` (stereo unspecified), the TGI in [1] is 80 µM; in experiment [2], 85 µM; in experiment [3], 97 µM; in experiment [4] it was 59 µM; in experiment [5], greater than 100 µM; in experiment [6], 77.7 µM. Moreover, the TGI in [7] is 53.5 µM; in experiment [8] it was greater than 100 µM; in experiment [9], greater than 100 µM; in experiment [10], greater than 100 µM.
With `CCOC(=O)/C(C(C)=O)=C(\OC(C)=O)c1ccncc1C(=O)O`, the TGI in [1], in experiment [2], in [3], in [4], in experiment [5] and in experiment [6] was greater than 100 µM in each case. Besides, the TGI in [7], in experiment [8], in experiment [9] and in experiment [10] was greater than 100 µM in each case.
For `C[C@@H]1CCC2[C@@H](C)[C@@H](O[C@H]3O[C@@H]4O[C@@]5(C)CCC6[C@H](C)CCC([C@H]3C)[C@]64OO5)O[C@@H]3O[C@@]4(C)CCC1[C@@]23OO4` (stereo partly specified), the TGI in experiment [1] is greater than 25 µM; in experiment [2], greater than 25 µM; in [3] it was greater than 25 µM; in experiment [4], greater than 7.26 µM; in [5], greater than 25 µM; in experiment [6], greater than 25 µM. The TGI in [7], in experiment [8], in experiment [9] and in [10] was greater than 25 µM each time.
`CC(C)(C)OC(=O)NC(CSSCC(NC(=O)OC(C)(C)C)C(=O)O)C(=O)O` (stereo unspecified): the TGI in experiment [1], in experiment [2], in experiment [3], in experiment [4], in [5] and in experiment [6] was greater than 100 µM in each case. For the same compound, the TGI in [7], in experiment [8], in experiment [9] and in experiment [10] was greater than 100 µM throughout.
Consider `C=CCn1c(=O)ccn(/C(=C/C(=O)OCC)C(=O)OCC)c1=O`, for which the TGI in experiment [1] turned out to be 31.3 µM; in experiment [2], 36.4 µM; in experiment [3], 10.3 µM; in [4], 31.4 µM; in experiment [5] it was 6.04 µM; in experiment [6] it was 9.15 µM. Besides, the TGI came out at 29.3 µM in [7], 74.3 µM in experiment [8], 6.57 µM in [9] and 31.5 µM in [10].
Take `CCOC(=O)C(NC(=O)CC)(N1CCN(c2cc3c(cc2F)c(=O)c(C(=O)O)cn3C2CC2)CC1)C(F)(F)F` (stereo unspecified): the TGI in experiment [1], in experiment [2], in experiment [3], in [4], in [5] and in [6] was greater than 100 µM each time. Moreover, the TGI in experiment [7], in experiment [8], in [9] and in [10] was greater than 100 µM in each case.
In the case of `CCOC(=O)c1c2cccccc-2nc1Nc1cccc2c(C)ccnc12`, the TGI in [1], in [2], in [3], in [4], in experiment [5] and in [6] was greater than 10 µM in each case. For the same compound, the TGI in experiment [7], in [8], in experiment [9] and in experiment [10] was greater than 10 µM throughout.
